Results from patent US20240228458A1, “PYRIMIDINE DERIVATIVE HAVING PROTEIN KINASE INHIBITORY ACTIVITY, AND THERAPEUTIC PHARMACEUTICAL COMPOSITION COMPRISING SAME” (THERAPEX CO., LTD., priority 2021, published 2024).

Key:
Assay type in all cases: cell-based
[1] = test system: Ba/F3 cells expressing EGFR-wt; test: Growth inhibition (GI50) of Ba/F3 cells expressing EGFR-wt, Celltiter glo; conditions: Mus musculus, BaF3, 72 h
Method: (§1) In this experimental example, a determination was made as to whether the compounds prepared in Examples 1-283 have the ability to inhibit the growth of Ba/F3 cells expressing EGFR-wt, del19/T790M/C797S (EGFR-DTC), L858R/T790M/C797S (EGFR-LTC), del19/T790M (EGFR-DT), and L858R/T790M (EGFR-LT) variants.
(§2) The parental Ba/F3 cell line is a population of cells that are not introduced with EGFR variants. Specifically, 100 μl of a cell line expressing each variant was plated in a 96-well plate at a density of 100,000 cells/ml. 10-point, 4-fold serial dilutions of each compound were prepared, starting at 2 mM. After 4 h, 0.5 μl of the compound (0.5% DMSO) was added, followed by incubation at 37° C. and 5% CO2 for 72 h. After incubation, the number of viable cells was measured using a Celltiter glo assay kit (Promega) and the GI50 of the compound was determined. The term “GI50” refers to the molar concentration (μM) of the compound required for 50% growth inhibition of cells.

[2] = test system: Ba/F3 cells expressing del19/T790M/C797S (EGFR-DTC); test: Growth inhibition (GI50) of Ba/F3 cells expressing del19/T790M/C797S (EGFR-DTC), Celltiter glo; conditions: Mus musculus, BaF3, 72 h
Method: as §1, §2

[3] = test system: Ba/F3 cells expressing L858R/T790M/C797S (EGFR-LTC); test: Growth inhibition (GI50) of Ba/F3 cells expressing L858R/T790M/C797S (EGFR-LTC), Celltiter glo; conditions: Mus musculus, BaF3, 72 h
Method: as §1, §2

parental Ba/F3 cell line = test: Growth inhibition (GI50) of the parental Ba/F3 cell line (not introduced with EGFR variants), Celltiter glo; conditions: Mus musculus, BaF3, 72 h, parental Ba/F3 cells
Method: as §2

| GI50 [1] | GI50 [2] | GI50 [3] | SMILES | GI50 (parental Ba/F3 cell line) |
| --- | --- | --- | --- | --- |
| 25 to 100 nM | 1 to 25 nM | 1 to 25 nM | CC(=O)Nc1ccccc1Nc1nc(Nc2ccc(N3CCC(N4CCN(C)CC4)CC3)c(F)c2)ncc1Cl [Example 69, N-(2-((5-chloro-2-((3-fluoro-4-(4-(4-methylpiperazin-1-yl)piperidin-1-yl)phenyl)amino)pyrimidin-4-yl)amino)phenyl)acetamide] | 1 to 25 nM |
| 100 to 500 nM | 100 to 500 nM | 100 to 500 nM | COc1cc(N2CCC(N3CCN(C)CC3)CC2)c(C)cc1Nc1ncc(Cl)c(Nc2cc(Cl)c(Cl)cc2NC(C)=O)n1 [Example 71, N-(4,5-dichloro-2-((5-chloro-2-((2-methoxy-5-methyl-4-(4-(4-methylpiperazin-1-yl)piperidin-1-yl)phenyl)amino)pyrimidin-4-yl)amino)phenyl)acetamide] | 500 to 2000 nM |
| 500 to 2000 nM | 500 to 2000 nM | 500 to 2000 nM | COc1nc(N2CCC(N3CCN(C)CC3)CC2)ccc1Nc1ncc(Cl)c(Nc2cc(Cl)c(Cl)cc2NC(C)=O)n1 [Example 72] | 2000 to 10000 nM |
| > 10000 nM | 2000 to 10000 nM | 2000 to 10000 nM | CC(=O)Nc1cc(Cl)c(Cl)cc1Nc1nc(Nc2ccc(N3CCOCC3)nc2)ncc1Cl [Example 74, N-(4,5-dichloro-2-((5-chloro-2-((6-morpholinopyridin-3-yl)amino)pyrimidin-4-yl)amino)phenyl)acetamide] | > 10000 nM |
| 100 to 500 nM | 100 to 500 nM | 100 to 500 nM | CC(=O)Nc1cc(Cl)c(Cl)cc1Nc1nc(Nc2ccc(N3CCC(N4CCN(C)CC4)CC3)c(F)c2)ncc1Cl [Example 76, N-(4,5-dichloro-2-((5-chloro-2-((3-fluoro-4-(4-(4-methylpiperazin-1-yl)piperidin-1-yl)phenyl)amino)pyrimidin-4-yl)amino)phenyl)acetamide] | 100 to 500 nM |
| 500 to 2000 nM | 500 to 2000 nM | 500 to 2000 nM | CC(=O)Nc1cc(Cl)c(Cl)cc1Nc1nc(Nc2ccc(N3CCC(N4CCN(C)CC4)CC3)cc2Cl)ncc1Cl [Example 77, N-(4,5-dichloro-2-((5-chloro-2-((2-chloro-4-(4-(4-methylpiperazin-1-yl)piperidin-1-yl)phenyl)amino)pyrimidin-4-yl)amino)phenyl)acetamide] | 500 to 2000 nM |
| 2000 to 10000 nM | 2000 to 10000 nM | 2000 to 10000 nM | COc1cc(N2CCC(N3CCN(C)CC3)CC2)c(C)cc1Nc1ncc(Cl)c(N(C)c2cc(Cl)c(Cl)cc2N(C)C(C)=O)n1 [Example 78, N-(4,5-dichloro-2-((5-chloro-2-((2-methoxy-5-methyl-4-(4-(4-methylpiperazin-1-yl)piperidin-1-yl)phenyl)amino)pyrimidin-4-yl)(methyl)amino)phenyl)-N-methylacetamide] | 2000 to 10000 nM |
| 500 to 2000 nM | 100 to 500 nM | 100 to 500 nM | COc1cc(N2CCC(N3CCN(C)CC3)CC2)ccc1Nc1ncc(Cl)c(Nc2cc(Cl)ccc2NS(C)(=O)=O)n1 [Example 82, N-(4-chloro-2-((5-chloro-2-((2-methoxy-4-(4-(4-methylpiperazin-1-yl)piperidin-1-yl)phenyl)amino)pyrimidin-4-yl)amino)phenyl)methanesulfonamide] | 500 to 2000 nM |
| 100 to 500 nM | 100 to 500 nM | 100 to 500 nM | CN1CCN(C2CCN(c3ccc(Nc4ncc(Cl)c(Nc5cc(Cl)ccc5NS(C)(=O)=O)n4)cc3F)CC2)CC1 [Example 84, N-(4-chloro-2-((5-chloro-2-((3-fluoro-4-(4-(4-methylpiperazin-1-yl)piperidin-1-yl)phenyl)amino)pyrimidin-4-yl)amino)phenyl)methanesulfonamide] | 500 to 2000 nM |
| 500 to 2000 nM | 100 to 500 nM | 100 to 500 nM | COc1nc(N2CCC(N3CCN(C)CC3)CC2)c(C)cc1Nc1ncc(Cl)c(Nc2cc(Cl)c(Cl)cc2NS(C)(=O)=O)n1 [Example 100] | 2000 to 10000 nM |
| 100 to 500 nM | 100 to 500 nM | 100 to 500 nM | CN1CCN(C2CCN(c3ccc(Nc4ncc(Cl)c(Nc5cc(Cl)c(Cl)cc5NS(C)(=O)=O)n4)cc3F)CC2)CC1 [Example 101, N-(4,5-dichloro-2-((5-chloro-2-((3-fluoro-4-(4-(4-methylpiperazin-1-yl)piperidin-1-yl)phenyl)amino)pyrimidin-4-yl)amino)phenyl)methanesulfonamide] | 2000 to 10000 nM |

The remaining lines, values behind:

| SMILES | GI50 [1] | GI50 [2] | GI50 [3] | GI50 (parental Ba/F3 cell line) |
| --- | --- | --- | --- | --- |
| CC(=O)Nc1cc(Cl)c(Cl)cc1Nc1nc(Nc2cnc(N3CCC(N4CCN(C)CC4)CC3)c(F)c2)ncc1Cl [Example 73, N-(4,5-dichloro-2-((5-chloro-2-((5-fluoro-6-(4-(4-methylpiperazin-1-yl)piperidin-1-yl)pyridin-3-yl)amino)pyrimidin-4-yl)amino)phenyl)acetamide] | 500 to 2000 nM | 500 to 2000 nM | 500 to 2000 nM | 2000 to 10000 nM |
| COc1cc(N2CCC(N3CCN(C)CC3)CC2)ccc1Nc1ncc(Cl)c(Nc2cc(Cl)c(Cl)cc2NC(C)=O)n1 [Example 75, N-(4,5-dichloro-2-((5-chloro-2-((2-methoxy-4-(4-(4-methylpiperazin-1-yl)piperidin-1-yl)phenyl)amino)pyrimidin-4-yl)amino)phenyl)acetamide] | 100 to 500 nM | 100 to 500 nM | 100 to 500 nM | 100 to 500 nM |
| COc1nc(N2CCC(N3CCN(C)CC3)CC2)ccc1Nc1ncc(Cl)c(N(C)c2cc(Cl)c(Cl)cc2N(C)C(C)=O)n1 [Example 79, N-(4,5-dichloro-2-((5-chloro-2-((2-methoxy-6-(4-(4-methylpiperazin-1-yl)piperidin-1-yl)pyridin-3-yl)amino)pyrimidin-4-yl)(methyl)amino)phenyl)-N-methylacetamide] | 2000 to 10000 nM | 500 to 2000 nM | 500 to 2000 nM | 500 to 2000 nM |
| COc1nc(N2CCC(N3CCN(C)CC3)CC2)ccc1Nc1ncc(Cl)c(Nc2cc(Cl)ccc2NS(C)(=O)=O)n1 [Example 81] | 2000 to 10000 nM | 500 to 2000 nM | 500 to 2000 nM | 500 to 2000 nM |
| COc1nc(N2CCC(N3CCN(C)CC3)CC2)c(C)cc1Nc1ncc(Cl)c(Nc2cc(Cl)ccc2NS(C)(=O)=O)n1 [Example 83, N-(4-chloro-2-((5-chloro-2-((2-methoxy-5-methyl-6-(4-(4-methylpiperazin-1-yl)piperidin-1-yl)pyridin-3-yl)amino)pyrimidin-4-yl)amino)phenyl)methanesulfonamide] | 500 to 2000 nM | 100 to 500 nM | 100 to 500 nM | 2000 to 10000 nM |
| COc1cc(N2CCC(N3CCC(N(C)C)C3)CC2)c(C)cc1Nc1ncc(Br)c(Nc2cc(Cl)ccc2NS(C)(=O)=O)n1 (stereo not drawn) [Example 91, N-(2-((5-bromo-2-((4-(4-(3-(dimethylamino)pyrrolidin-1-yl)piperidin-1-yl)-2-methoxy-5-methylphenyl)amino)pyrimidin-4-yl)amino)-4-chlorophenyl)methanesulfonamide] | 100 to 500 nM | 1 to 25 nM | 25 to 100 nM | 2000 to 10000 nM |
| COc1cc(N2CCC(N3CCN(C)CC3)CC2)c(F)cc1Nc1ncc(Br)c(Nc2cc(Cl)ccc2NS(C)(=O)=O)n1 [Example 92, N-(2-((5-bromo-2-((5-fluoro-2-methoxy-4-(4-(4-methylpiperazin-1-yl)piperidin-1-yl)phenyl)amino)pyrimidin-4-yl)amino)-4-chlorophenyl)methanesulfonamide] | 100 to 500 nM | 1 to 25 nM | 25 to 100 nM | 2000 to 10000 nM |
| Cc1cc(Nc2ncc(Br)c(Nc3cc(Cl)ccc3NS(C)(=O)=O)n2)c(Cl)cc1N1CCC(N2CCN(C)CC2)CC1 [Example 93, N-(2-((5-bromo-2-((2-chloro-5-methyl-4-(4-(4-methylpiperazin-1-yl)piperidin-1-yl)phenyl)amino)pyrimidin-4-yl)amino)-4-chlorophenyl)methanesulfonamide] | 500 to 2000 nM | 1 to 25 nM | 25 to 100 nM | 2000 to 10000 nM |
| Cc1cc(Nc2ncc(Br)c(Nc3cc(Cl)ccc3NS(C)(=O)=O)n2)c(Cl)cc1N1CCC(N2CCC(N(C)C)C2)CC1 (stereo not drawn) [Example 96, N-(2-((5-bromo-2-((2-chloro-4-(4-(3-(dimethylamino)pyrrolidin-1-yl)piperidin-1-yl)-5-methylphenyl)amino)pyrimidin-4-yl)amino)-4-chlorophenyl)methanesulfonamide] | 500 to 2000 nM | 500 to 2000 nM | 500 to 2000 nM | > 10000 nM |
| COc1cc(N2CCC(N3CCN(C)CC3)CC2)c(C)cc1Nc1ncc(Cl)c(Nc2cc(Cl)c(Cl)cc2NS(C)(=O)=O)n1 [Example 99, N-(4,5-dichloro-2-((5-chloro-2-((2-methoxy-5-methyl-4-(4-(4-methylpiperazin-1-yl)piperidin-1-yl)phenyl)amino)pyrimidin-4-yl)amino)phenyl)methanesulfonamide] | 500 to 2000 nM | 25 to 100 nM | 25 to 100 nM | > 10000 nM |
